Experimental data published in article PMC9500072, “Topical application of an irreversible small molecule inhibitor of lysyl oxidases ameliorates skin scarring and fibrosis” (Nature Communications, 2022).

Tests used:
Adenosine A3 = Adenosine A3 (Homo sapiens, UniProt P0DMS8); assay: Eurofins panel 200720; format: binding
Bradykinin B2 = Bradykinin B2 (Homo sapiens, UniProt P30411); assay: Eurofins panel 212620; format: binding
Estrogen ERα = Estrogen ERα (Homo sapiens, UniProt P03372); assay: Eurofins panel 226010; format: binding
Estrogen ERα, sequence (P03372 whole entry): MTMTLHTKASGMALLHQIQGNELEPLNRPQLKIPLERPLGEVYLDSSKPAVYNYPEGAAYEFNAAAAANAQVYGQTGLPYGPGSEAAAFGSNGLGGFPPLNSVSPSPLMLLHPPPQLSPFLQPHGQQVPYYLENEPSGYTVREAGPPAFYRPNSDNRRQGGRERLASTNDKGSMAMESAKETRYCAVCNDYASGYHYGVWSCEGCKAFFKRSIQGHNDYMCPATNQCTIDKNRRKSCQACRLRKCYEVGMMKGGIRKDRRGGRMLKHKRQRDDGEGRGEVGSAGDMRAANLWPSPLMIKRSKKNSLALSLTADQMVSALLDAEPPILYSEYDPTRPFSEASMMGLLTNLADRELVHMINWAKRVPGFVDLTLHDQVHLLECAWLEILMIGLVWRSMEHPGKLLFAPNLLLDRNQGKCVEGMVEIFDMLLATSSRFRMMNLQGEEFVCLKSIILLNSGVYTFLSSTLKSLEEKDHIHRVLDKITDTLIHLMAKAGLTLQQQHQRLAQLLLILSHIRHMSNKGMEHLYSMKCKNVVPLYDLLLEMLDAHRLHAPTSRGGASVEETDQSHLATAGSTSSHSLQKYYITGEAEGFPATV

[1] = test system: Calcium Channel L-Type, Benzothiazepine; assay: Eurofins panel 214510; format: binding, rat; details: 10 µM
Nicotinic Acetylcholine = assay: Eurofins panel 258590; format: binding, human; details: 10 µM
fibroblasts = assay: RNASeq transcriptome analysis, fibroblasts; format: cell-based, human; details: 24 hrs of treatment
LOX = assay: Substrate (putrescine) competition; format: biochemical; set-up: Fig. 2D activity: scale not given here
Source text: PXS-4787 competes with a model substrate (putrescine) for the LOX binding site (Fig. 2d). The allylamine of PXS-4787 interacts with the co-factor of the enzyme and elicits mechanism-based inhibition (Fig. 2e). Through careful optimization, and in contrast to BAPN, PXS-4787 selectivity targets lysyl oxidases and is neither an inhibitor of, nor a substrate for, related oxidases (Fig. 2f, g and Supplementary Table S1). Furthermore, PXS-4787 was clean when profiled in a broad panel of macromolecular targets using enzyme and radioligand binding assays (LeadProfilingScreen, Eurofins CEREP Panlabs, 68 assays, test concentration 10 µM; Supplementary Data S1).
Data are expressed as mean ± SEM. Subsequent statistical analysis was performed with unpaired two-sided Student’s t tests. *p < 0.05, **p < 0.01, ***p < 0.001and ****p < 0.0001. Source data are provided as a Source Data file.
(§1) The measurement of the enzymatic activity of all lysyl oxidase family members was based on the detection of hydrogen peroxide with an Amplex-Red oxidation assay, as previously described; miniaturized in 384 well formats, with the appropriate combination of substrate and assay buffer for each individual enzyme. After a 30 min pre-incubation of the enzyme at 37 °C with the test compound (or with different incubation times for the time-dependency assay), one volume of reaction mixture containing 120 μM Amplex Red (AR) (Life Technologies), 1.5 U/mL horseradish peroxidase (HRP) (Sigma-Aldrich) and the specific substrate was added to each sample. The relative fluorescence units (RFU) were then measured every 2.5 min for 30 min at 37 °C, excitation 565 nm and emission 590, on a BMG Clariostar Microplate Reader. All the substrates were used at concentrations corresponding to their Km towards the corresponding enzyme, or with a range of different concentrations for the substrate competition experiments.

Dopamine D3 = Dopamine D3 (Homo sapiens, UniProt P35462); assay: Eurofins panel 219800; format: binding
Dopamine D3, sequence (P35462 whole entry): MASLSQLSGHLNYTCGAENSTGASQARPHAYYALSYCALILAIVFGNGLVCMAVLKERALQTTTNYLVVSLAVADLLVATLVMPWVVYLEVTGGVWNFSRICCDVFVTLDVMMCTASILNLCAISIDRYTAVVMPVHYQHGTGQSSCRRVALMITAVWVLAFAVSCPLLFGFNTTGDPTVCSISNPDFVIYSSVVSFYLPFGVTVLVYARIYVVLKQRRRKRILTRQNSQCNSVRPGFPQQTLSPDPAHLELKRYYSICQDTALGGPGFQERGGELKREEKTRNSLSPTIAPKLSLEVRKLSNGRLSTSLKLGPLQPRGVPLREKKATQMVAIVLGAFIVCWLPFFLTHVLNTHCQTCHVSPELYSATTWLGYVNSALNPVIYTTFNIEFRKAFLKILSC

Bovine (aorta) LOX = target: T1, Bovine (aorta) LOX (Bos taurus, UniProt P33072); assay: Amplex Red oxidation assay, LOX inhibition; format: biochemical
T1 construct: Bovine (aorta) LOX used for analog screening due to ready availability; from tissue; host or cells: bovine aorta
T1 sequence (P33072 170-418): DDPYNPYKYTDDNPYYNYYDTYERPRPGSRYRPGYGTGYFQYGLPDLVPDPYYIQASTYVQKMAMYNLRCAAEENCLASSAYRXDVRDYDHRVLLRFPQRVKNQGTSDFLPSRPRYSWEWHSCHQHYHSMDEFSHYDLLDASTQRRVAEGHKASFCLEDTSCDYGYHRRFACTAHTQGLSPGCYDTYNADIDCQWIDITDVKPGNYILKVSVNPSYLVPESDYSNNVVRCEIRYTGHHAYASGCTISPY
Description: as §1
Lysyl oxidases assay buffer contained 1.2 M urea, 50 mM sodium borate buffer, pH 8.2 and 100 µM β-aminoproprionitrile (BAPN, Sigma-Aldrich) was used for low control.

hERG potassium channel = hERG potassium channel (Homo sapiens, UniProt Q12809); assay: Eurofins panel 265900; format: binding
hERG potassium channel, sequence (Q12809 whole entry): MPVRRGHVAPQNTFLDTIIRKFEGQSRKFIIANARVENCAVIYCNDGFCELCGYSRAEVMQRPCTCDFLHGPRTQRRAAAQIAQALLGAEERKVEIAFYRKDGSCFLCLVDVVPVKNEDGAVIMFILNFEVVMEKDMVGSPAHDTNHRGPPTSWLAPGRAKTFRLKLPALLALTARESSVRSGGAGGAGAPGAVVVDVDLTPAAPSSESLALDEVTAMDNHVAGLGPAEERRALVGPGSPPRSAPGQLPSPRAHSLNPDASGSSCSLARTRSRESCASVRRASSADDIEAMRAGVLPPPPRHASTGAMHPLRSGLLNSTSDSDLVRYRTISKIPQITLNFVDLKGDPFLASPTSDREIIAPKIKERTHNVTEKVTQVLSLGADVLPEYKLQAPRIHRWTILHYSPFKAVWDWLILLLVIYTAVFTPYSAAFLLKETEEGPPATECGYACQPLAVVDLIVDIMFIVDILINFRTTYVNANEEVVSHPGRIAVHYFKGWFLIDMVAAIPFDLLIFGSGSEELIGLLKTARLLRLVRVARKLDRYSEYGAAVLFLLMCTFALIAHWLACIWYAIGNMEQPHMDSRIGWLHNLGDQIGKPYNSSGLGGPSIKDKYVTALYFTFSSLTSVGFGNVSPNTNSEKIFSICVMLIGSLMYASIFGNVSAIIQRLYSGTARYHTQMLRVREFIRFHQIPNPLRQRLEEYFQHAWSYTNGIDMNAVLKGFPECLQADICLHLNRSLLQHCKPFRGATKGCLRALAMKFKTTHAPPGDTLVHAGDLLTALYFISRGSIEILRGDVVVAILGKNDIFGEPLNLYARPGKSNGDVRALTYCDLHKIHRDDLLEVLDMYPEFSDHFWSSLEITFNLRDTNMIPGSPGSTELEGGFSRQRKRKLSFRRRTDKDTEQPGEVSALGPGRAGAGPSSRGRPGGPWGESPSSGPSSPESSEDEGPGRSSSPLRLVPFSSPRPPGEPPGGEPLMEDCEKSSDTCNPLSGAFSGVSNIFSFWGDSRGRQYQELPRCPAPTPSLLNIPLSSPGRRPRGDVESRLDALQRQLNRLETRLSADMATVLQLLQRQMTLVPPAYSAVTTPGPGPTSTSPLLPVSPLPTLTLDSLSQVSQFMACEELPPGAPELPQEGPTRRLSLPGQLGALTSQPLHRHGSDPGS

Phosphodiesterase PDE3A = Phosphodiesterase PDE3A (Homo sapiens, UniProt Q14432); assay: Eurofins panel 152300; format: biochemical
Phosphodiesterase PDE3A, sequence (Q14432 whole entry): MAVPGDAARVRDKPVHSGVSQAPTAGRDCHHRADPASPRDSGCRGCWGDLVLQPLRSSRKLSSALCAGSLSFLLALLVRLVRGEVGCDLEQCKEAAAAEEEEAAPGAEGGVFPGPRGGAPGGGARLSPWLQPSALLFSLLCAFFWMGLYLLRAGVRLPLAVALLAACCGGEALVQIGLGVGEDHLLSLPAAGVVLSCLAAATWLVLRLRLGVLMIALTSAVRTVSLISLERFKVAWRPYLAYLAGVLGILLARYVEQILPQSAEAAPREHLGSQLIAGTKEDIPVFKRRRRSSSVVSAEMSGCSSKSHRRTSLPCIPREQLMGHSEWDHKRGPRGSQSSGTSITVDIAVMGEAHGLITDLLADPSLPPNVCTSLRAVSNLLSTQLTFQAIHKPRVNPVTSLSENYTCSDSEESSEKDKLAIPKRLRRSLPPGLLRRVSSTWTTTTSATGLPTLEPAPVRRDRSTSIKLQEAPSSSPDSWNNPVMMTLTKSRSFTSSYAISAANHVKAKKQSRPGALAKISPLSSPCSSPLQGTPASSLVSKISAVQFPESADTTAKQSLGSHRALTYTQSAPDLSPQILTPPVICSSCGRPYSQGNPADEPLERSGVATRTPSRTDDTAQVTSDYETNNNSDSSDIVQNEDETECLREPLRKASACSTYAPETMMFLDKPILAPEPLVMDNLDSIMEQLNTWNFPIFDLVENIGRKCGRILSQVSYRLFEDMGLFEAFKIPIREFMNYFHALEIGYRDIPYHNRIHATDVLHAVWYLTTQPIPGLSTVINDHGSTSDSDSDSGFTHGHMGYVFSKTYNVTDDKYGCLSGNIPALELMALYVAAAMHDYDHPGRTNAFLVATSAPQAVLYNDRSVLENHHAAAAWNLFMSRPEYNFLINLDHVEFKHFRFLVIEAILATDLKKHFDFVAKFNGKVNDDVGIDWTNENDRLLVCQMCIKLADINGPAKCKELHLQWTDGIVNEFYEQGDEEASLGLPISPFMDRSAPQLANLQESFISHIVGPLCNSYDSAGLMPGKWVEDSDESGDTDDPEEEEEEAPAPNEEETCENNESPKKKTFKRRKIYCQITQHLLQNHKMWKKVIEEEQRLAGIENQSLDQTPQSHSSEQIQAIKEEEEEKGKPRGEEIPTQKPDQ

Bradykinin B2, sequence (P30411 whole entry): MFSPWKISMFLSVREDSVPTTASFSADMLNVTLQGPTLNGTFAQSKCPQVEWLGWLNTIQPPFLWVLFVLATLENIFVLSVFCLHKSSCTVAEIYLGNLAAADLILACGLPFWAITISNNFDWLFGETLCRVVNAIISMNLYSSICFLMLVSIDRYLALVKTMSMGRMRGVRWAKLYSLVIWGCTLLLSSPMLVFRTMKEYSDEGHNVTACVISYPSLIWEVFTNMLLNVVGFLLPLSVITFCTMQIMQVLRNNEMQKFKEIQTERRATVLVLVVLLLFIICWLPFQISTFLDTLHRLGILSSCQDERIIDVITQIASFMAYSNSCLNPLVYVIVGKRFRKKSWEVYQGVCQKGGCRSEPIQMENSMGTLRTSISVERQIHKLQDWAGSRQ
Adenosine A3, sequence (P0DMS8 whole entry): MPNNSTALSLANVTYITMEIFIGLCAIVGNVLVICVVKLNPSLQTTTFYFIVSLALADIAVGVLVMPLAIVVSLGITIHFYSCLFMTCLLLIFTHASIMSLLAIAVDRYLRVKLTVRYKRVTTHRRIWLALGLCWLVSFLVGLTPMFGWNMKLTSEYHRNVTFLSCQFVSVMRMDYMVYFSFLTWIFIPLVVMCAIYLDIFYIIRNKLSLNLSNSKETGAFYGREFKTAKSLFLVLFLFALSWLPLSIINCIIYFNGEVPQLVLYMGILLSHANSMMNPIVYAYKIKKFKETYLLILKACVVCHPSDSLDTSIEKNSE

NC/C=C(\F)CS(=O)(=O)c1ccccc1 [PXS-4787]
inhibition at 10 µM (Adenosine A3): 4%
inhibition at 10 µM (Bradykinin B2): 5%
inhibition at 10 µM (Estrogen ERα): 3%
% Inh. [1]: 24%
% Inh. (Nicotinic Acetylcholine): 1%
Log2 fold change ACTA2-AS1 (fibroblasts): -3.268
Log2 fold change GAL (fibroblasts): 2.787
Log2 fold change ICOSLG (fibroblasts): 1.738
Log2 fold change TMEM88 (fibroblasts): 2.374
competition with model substrate putrescine for the LOX binding site (LOX): competes
Fig. 2D activity (LOX; 5.65e-10, putrescine 1.1 mM): 89.58
Fig. 2D activity (LOX; 5.65e-10, putrescine 3.3 mM): 93.22
Fig. 2D activity (LOX; 5.65e-10, putrescine 10 mM): 98.29
Fig. 2D activity (LOX; 5.65e-10, putrescine 30 mM): 96.57
Fig. 2D activity (LOX; 5.65e-10, putrescine 90 mM): 93.38
Fig. 2D activity (LOX; 1.69e-9, putrescine 1.1 mM): 84.4
Fig. 2D activity (LOX; 1.69e-9, putrescine 3.3 mM): 94.23
Fig. 2D activity (LOX; 1.69e-9, putrescine 10 mM): 94.63
Fig. 2D activity (LOX; 1.69e-9, putrescine 30 mM): 93.67
Fig. 2D activity (LOX; 1.69e-9, putrescine 90 mM): 92.69
Fig. 2D activity (LOX; 5.08e-9, putrescine 1.1 mM): 89.54
Fig. 2D activity (LOX; 5.08e-9, putrescine 3.3 mM): 93.84
Fig. 2D activity (LOX; 5.08e-9, putrescine 10 mM): 97.41
Fig. 2D activity (LOX; 5.08e-9, putrescine 30 mM): 96.12
Fig. 2D activity (LOX; 5.08e-9, putrescine 90 mM): 91.41
Fig. 2D activity (LOX; 1.52e-8, putrescine 1.1 mM): 91.17
Fig. 2D activity (LOX; 1.52e-8, putrescine 3.3 mM): 95.49
Fig. 2D activity (LOX; 1.52e-8, putrescine 10 mM): 93.57
Fig. 2D activity (LOX; 1.52e-8, putrescine 30 mM): 97.83
Fig. 2D activity (LOX; 1.52e-8, putrescine 90 mM): 92.34
Fig. 2D activity (LOX; 4.57e-8, putrescine 1.1 mM): 81.95
Fig. 2D activity (LOX; 4.57e-8, putrescine 3.3 mM): 93.97
Fig. 2D activity (LOX; 4.57e-8, putrescine 10 mM): 95.69
Fig. 2D activity (LOX; 4.57e-8, putrescine 30 mM): 96.71
Fig. 2D activity (LOX; 4.57e-8, putrescine 90 mM): 93.31
Fig. 2D activity (LOX; 1.37e-7, putrescine 1.1 mM): 73.72
Fig. 2D activity (LOX; 1.37e-7, putrescine 3.3 mM): 89.33
Fig. 2D activity (LOX; 1.37e-7, putrescine 10 mM): 93.77
Fig. 2D activity (LOX; 1.37e-7, putrescine 30 mM): 94.81
Fig. 2D activity (LOX; 1.37e-7, putrescine 90 mM): 93.26
Fig. 2D activity (LOX; 4.12e-7, putrescine 1.1 mM): 60.93
Fig. 2D activity (LOX; 4.12e-7, putrescine 3.3 mM): 75.9
Fig. 2D activity (LOX; 4.12e-7, putrescine 10 mM): 89.23
Fig. 2D activity (LOX; 4.12e-7, putrescine 30 mM): 89.28
Fig. 2D activity (LOX; 4.12e-7, putrescine 90 mM): 90.74
Fig. 2D activity (LOX; 1.23e-6, putrescine 1.1 mM): 32.69
Fig. 2D activity (LOX; 1.23e-6, putrescine 3.3 mM): 47.9
Fig. 2D activity (LOX; 1.23e-6, putrescine 10 mM): 67.1
Fig. 2D activity (LOX; 1.23e-6, putrescine 30 mM): 81.21
Fig. 2D activity (LOX; 1.23e-6, putrescine 90 mM): 86.37
Fig. 2D activity (LOX; 3.7e-6, putrescine 1.1 mM): 11.17
Fig. 2D activity (LOX; 3.7e-6, putrescine 3.3 mM): 19.92
Fig. 2D activity (LOX; 3.7e-6, putrescine 10 mM): 38.7
Fig. 2D activity (LOX; 3.7e-6, putrescine 30 mM): 60.57
Fig. 2D activity (LOX; 3.7e-6, putrescine 90 mM): 76.61
Fig. 2D activity (LOX; 1.11e-5, putrescine 1.1 mM): 3.35
Fig. 2D activity (LOX; 1.11e-5, putrescine 3.3 mM): 6.43
Fig. 2D activity (LOX; 1.11e-5, putrescine 10 mM): 14.18
Fig. 2D activity (LOX; 1.11e-5, putrescine 30 mM): 32.4
Fig. 2D activity (LOX; 1.11e-5, putrescine 90 mM): 57.08
Fig. 2D activity (LOX; 3.33e-5, putrescine 1.1 mM): -0.5
Fig. 2D activity (LOX; 3.33e-5, putrescine 3.3 mM): 1.53
Fig. 2D activity (LOX; 3.33e-5, putrescine 10 mM): 3.65
Fig. 2D activity (LOX; 3.33e-5, putrescine 30 mM): 9.04
Fig. 2D activity (LOX; 3.33e-5, putrescine 90 mM): 24.08
Fig. 2D activity (LOX; 0.0001, putrescine 1.1 mM): -0.9
Fig. 2D activity (LOX; 0.0001, putrescine 3.3 mM): -0.36
Fig. 2D activity (LOX; 0.0001, putrescine 10 mM): 0.174
Fig. 2D activity (LOX; 0.0001, putrescine 30 mM): 1.46
Fig. 2D activity (LOX; 0.0001, putrescine 90 mM): 4.82
inhibition at 10 µM (Dopamine D3): 0%
IC50 (Bovine (aorta) LOX; 30 min pre-incubation): 2000 nM
inhibition at 30 µM (Bovine (aorta) LOX; log conc -4.5229, read-out: Fig 2A inhibition (mean)): 99.2%
inhibition at 10 µM (Bovine (aorta) LOX; log conc -5, read-out: Fig 2A inhibition (mean)): 92.3%
inhibition at 3.333 µM (Bovine (aorta) LOX; log conc -5.4771, read-out: Fig 2A inhibition (mean)): 65.8%
inhibition at 1.111 µM (Bovine (aorta) LOX; log conc -5.9542, read-out: Fig 2A inhibition (mean)): 35%
inhibition at 0.3704 µM (Bovine (aorta) LOX; log conc -6.4313, read-out: Fig 2A inhibition (mean)): 14.2%
inhibition at 0.1235 µM (Bovine (aorta) LOX; log conc -6.9083, read-out: Fig 2A inhibition (mean)): 4.31%
inhibition at 0.0412 µM (Bovine (aorta) LOX; log conc -7.3851, read-out: Fig 2A inhibition (mean)): 1.21%
inhibition at 0.0137 µM (Bovine (aorta) LOX; log conc -7.8633, read-out: Fig 2A inhibition (mean)): -0.629%
inhibition at 0.0046 µM (Bovine (aorta) LOX; log conc -8.3372, read-out: Fig 2A inhibition (mean)): -1.3%
inhibition at […] (Bovine (aorta) LOX; log conc -8.8239, read-out: Fig 2A inhibition (mean)): -1.09%
inhibition at 0.0005 µM (Bovine (aorta) LOX; log conc -9.301, read-out: Fig 2A inhibition (mean)): -1.47%
inhibition at 10 µM (hERG potassium channel): 9%

NC/C=C(\F)C(F)(F)S(=O)(=O)c1ccccc1 [PXS-6302]
inhibition at 30 µM (Phosphodiesterase PDE3A): -4%
